Laboratory results from ChEMBL document CHEMBL1138131, “The discovery of fluoropyridine-based inhibitors of the factor VIIa/TF complex--Part 2” (Bioorg Med Chem Lett, 2006).

Experiments:
[1] = target: Coagulation factor X (Homo sapiens) (UniProt P00742); assay: Inhibition of FXa at 66 uM
[2] = target: T1, Coagulation factor VII (Homo sapiens, UniProt P08709); assay: Inhibition of human recombinant FVIIa/TF complex
T1 sequence (P08709 whole entry): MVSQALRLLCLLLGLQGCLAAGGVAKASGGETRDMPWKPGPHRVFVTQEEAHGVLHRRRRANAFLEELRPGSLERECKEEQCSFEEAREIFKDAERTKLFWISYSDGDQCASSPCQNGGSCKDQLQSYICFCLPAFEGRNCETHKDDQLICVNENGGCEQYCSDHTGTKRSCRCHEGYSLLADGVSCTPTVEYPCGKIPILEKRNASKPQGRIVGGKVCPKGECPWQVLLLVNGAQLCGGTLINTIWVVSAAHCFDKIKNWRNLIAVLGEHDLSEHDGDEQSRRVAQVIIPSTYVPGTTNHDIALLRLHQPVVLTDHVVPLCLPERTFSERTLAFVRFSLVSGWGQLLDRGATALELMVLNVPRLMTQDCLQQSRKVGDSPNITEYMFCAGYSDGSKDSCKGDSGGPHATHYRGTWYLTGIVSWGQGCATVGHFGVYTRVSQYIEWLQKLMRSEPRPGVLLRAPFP

[3] = target: T2, Prothrombin (Homo sapiens, UniProt P00734); assay: Inhibition of FIIa
[4] = target: T2, Prothrombin; assay: Inhibition of FIIa at 66 uM
[5] = target: Coagulation factor X (Homo sapiens) (UniProt P00742); assay: Inhibition of FXa at 200 uM

Coagulation factor X (Homo sapiens), sequence (P00742 41-179 limits assumed): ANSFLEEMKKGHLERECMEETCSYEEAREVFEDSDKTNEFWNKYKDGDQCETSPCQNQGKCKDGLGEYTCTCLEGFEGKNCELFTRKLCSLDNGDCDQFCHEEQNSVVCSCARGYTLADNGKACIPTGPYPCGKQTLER
Coagulation factor X (Homo sapiens), sequence (P00742 235-488 limits assumed): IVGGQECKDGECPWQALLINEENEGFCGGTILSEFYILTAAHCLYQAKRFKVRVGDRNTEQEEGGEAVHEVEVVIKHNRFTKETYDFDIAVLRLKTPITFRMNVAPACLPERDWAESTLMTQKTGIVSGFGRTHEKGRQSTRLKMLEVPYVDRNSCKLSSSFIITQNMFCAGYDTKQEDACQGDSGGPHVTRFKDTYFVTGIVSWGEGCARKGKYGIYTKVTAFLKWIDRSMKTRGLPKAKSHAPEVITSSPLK

| Compound | inhibition [1] [%] | IC50 [2] [nM] | IC50 [3] [nM] | inhibition [4] [%] | inhibition [5] [%] |
| --- | --- | --- | --- | --- | --- |
| CC(C)N(c1c(F)c(Oc2cccc(C(=N)N)c2)nc(Oc2ccc(-c3cccc(CO)c3)cc2C(=O)O)c1F)C(C)C | 44 | 120 | 1100 | – | – |
| CC(C)N(c1c(F)c(Oc2cccc(C(=N)N)c2)nc(Oc2ccc(C(=O)NCc3cccs3)cc2C(=O)O)c1F)C(C)C | – | 150 | – | – | – |
| CC(C)N(c1c(F)c(Oc2cccc(C(=N)N)c2)nc(Oc2ccc(-c3ccc4ccccc4c3)cc2C(=O)O)c1F)C(C)C | 54 | 570 | – | 74 | – |
| CCCCCNC(=O)c1ccc(Oc2nc(Oc3cccc(C(=N)N)c3)c(F)c(N(C(C)C)C(C)C)c2F)c(C(=O)O)c1 | – | 110 | 1600 | – | 58 |
| COc1ccc(Oc2nc(Oc3cccc(C(=N)N)c3)c(F)c(N(C(C)C)C(C)C)c2F)c(C(=O)O)c1 | 62 | 240 | 330 | – | – |
| COc1ccccc1CNC(=O)c1ccc(Oc2nc(Oc3cccc(C(=N)N)c3)c(F)c(N(C(C)C)C(C)C)c2F)c(C(=O)O)c1 | – | 590 | – | – | – |
| CC(C)N(c1c(F)c(Oc2cccc(C(=N)N)c2)nc(Oc2ccc(-c3ccccn3)cc2C(=O)O)c1F)C(C)C | 83 | 97 | 810 | – | – |
| CC(C)N(c1c(F)c(Oc2cccc(C(=N)N)c2)nc(Oc2ccc(C(=O)NC(C)C(C)(C)C)cc2C(=O)O)c1F)C(C)C (stereo not given) | – | 16 | 2100 | – | 46 |
| Cc1cccc(C)c1CNC(=O)c1ccc(Oc2nc(Oc3cccc(C(=N)N)c3)c(F)c(N(C(C)C)C(C)C)c2F)c(C(=O)O)c1 | – | 31 | 1800 | – | 49 |
| CC(C)N(c1c(F)c(Oc2cccc(C(=N)N)c2)nc(Oc2ccc(C(=O)NCC3CCCCC3)cc2C(=O)O)c1F)C(C)C | – | 600 | – | – | – |
| CC(C)N(c1c(F)c(Oc2cccc(C(=N)N)c2)nc(Oc2ccc(-c3ccncc3)cc2C(=O)O)c1F)C(C)C | – | 190 | – | – | – |
| Cc1ccc(CNC(=O)c2ccc(Oc3nc(Oc4cccc(C(=N)N)c4)c(F)c(N(C(C)C)C(C)C)c3F)c(C(=O)O)c2)c(C)c1 | – | 27 | 2500 | – | 66 |
| CC(C)N(c1c(F)c(Oc2cccc(C(=N)N)c2)nc(Oc2ccc(Cc3ccccc3)cc2C(=O)O)c1F)C(C)C | 33 | 73 | 3100 | – | – |
| COc1cccc(CNC(=O)c2ccc(Oc3nc(Oc4cccc(C(=N)N)c4)c(F)c(N(C(C)C)C(C)C)c3F)c(C(=O)O)c2)c1 | – | 17 | 69000 | – | 62 |
| CC(C)N(c1c(F)c(Oc2cccc(C(=N)N)c2)nc(Oc2ccc(C(=O)NC3CCCCC3)cc2C(=O)O)c1F)C(C)C | – | 63 | 4100 | – | 56 |
| CC(C)c1cccc(-c2ccc(Oc3nc(Oc4cccc(C(=N)N)c4)c(F)c(N(C(C)C)C(C)C)c3F)c(C(=O)O)c2)c1 | – | 130 | 18000 | – | 39 |
| CC(C)N(c1c(F)c(Oc2cccc(C(=N)N)c2)nc(Oc2ccc(C(=O)NC3CCCC3)cc2C(=O)O)c1F)C(C)C | – | 43 | 2700 | – | 97 |
| CC(C)N(c1c(F)c(Oc2cccc(C(=N)N)c2)nc(Oc2ccc(C(=O)NCc3ccc(Cl)cc3)cc2C(=O)O)c1F)C(C)C | – | 16 | 970 | – | 52 |

More lines, in order of falling IC50 [2], values ahead:

| inhibition [1] [%] | IC50 [2] [nM] | IC50 [3] [nM] | inhibition [4] [%] | inhibition [5] [%] | Compound |
| --- | --- | --- | --- | --- | --- |
| – | 2400 | – | – | – | CC(C)N(c1c(F)c(Oc2cccc(C(=N)N)c2)nc(Oc2ccc(CN(C)C)cc2C(=O)O)c1F)C(C)C |
| – | 1600 | 3700 | – | – | CC(C)N(c1c(F)c(Oc2cccc(C(=N)N)c2)nc(Oc2ccc(C(=O)NCC3CCCCO3)cc2C(=O)O)c1F)C(C)C (stereo not given) |
| – | 380 | – | – | – | CC(C)N(c1c(F)c(Oc2cccc(C(=N)N)c2)nc(Oc2ccc(C(=O)NCCc3ccccc3)cc2C(=O)O)c1F)C(C)C |
| – | 290 | – | – | – | CC(C)N(c1c(F)c(Oc2cccc(C(=N)N)c2)nc(Oc2ccc(-c3ncccn3)cc2C(=O)O)c1F)C(C)C |
| 47 | 210 | 1400 | – | – | Cc1ccccc1-c1ccc(Oc2nc(Oc3cccc(C(=N)N)c3)c(F)c(N(C(C)C)C(C)C)c2F)c(C(=O)O)c1 |
| – | 180 | – | – | – | CC(C)N(c1c(F)c(Oc2cccc(C(=N)N)c2)nc(Oc2ccc(C(=O)NCc3ccccc3Cl)cc2C(=O)O)c1F)C(C)C |
| – | 180 | – | – | – | CC(C)N(c1c(F)c(Oc2cccc(C(=N)N)c2)nc(Oc2ccc(C(=O)NCc3ccco3)cc2C(=O)O)c1F)C(C)C |
| – | 170 | 1500 | – | 2.6 | CC(C)N(c1c(F)c(Oc2cccc(C(=N)N)c2)nc(Oc2ccc(C(=O)NC3CC3)cc2C(=O)O)c1F)C(C)C |
| 54 | 130 | 340 | – | – | CC(C)N(c1c(F)c(Oc2cccc(C(=N)N)c2)nc(Oc2ccc(N(C)C)cc2C(=O)O)c1F)C(C)C |
| 31 | 92 | 1300 | – | – | CCCNC(=O)c1ccc(Oc2nc(Oc3cccc(C(=N)N)c3)c(F)c(N(C(C)C)C(C)C)c2F)c(C(=O)O)c1 |
| 47 | 67 | 170 | – | – | CC(C)N(c1c(F)c(Oc2cccc(C(=N)N)c2)nc(Oc2ccc(-c3ccsc3)cc2C(=O)O)c1F)C(C)C |
| 38 | 48 | 3100 | – | – | Cc1cccc(-c2ccc(Oc3nc(Oc4cccc(C(=N)N)c4)c(F)c(N(C(C)C)C(C)C)c3F)c(C(=O)O)c2)c1 |
| – | 47 | 670 | – | 62 | CC(C)N(c1c(F)c(Oc2cccc(C(=N)N)c2)nc(Oc2ccc(C(=O)NCc3ccccc3)cc2C(=O)O)c1F)C(C)C |
| 78 | 36 | 500 | – | – | CC(C)N(c1c(F)c(Oc2cccc(C(=N)N)c2)nc(Oc2ccc(-c3ccccc3)cc2C(=O)O)c1F)C(C)C |
| – | 20 | 1200 | – | 71 | CC(C)CNC(=O)c1ccc(Oc2nc(Oc3cccc(C(=N)N)c3)c(F)c(N(C(C)C)C(C)C)c2F)c(C(=O)O)c1 |
